{"source": "patent EP4406531A1", "about": "“DOSAGE FORM FOR INTRA-ARTICULAR INJECTION […] AN […] IN THE TREATMENT OF CRYSTAL-AND NON-CRYSTAL […] IN[…]” (PK MED, priority 2023, dated 2024)", "origin": "cited, not measured here", "conditions": "literature (Niel et al. 2006)"}
{"compound": "COc1cc2c(c(OC)c1OC)-c1ccc(OC)c(=O)cc1[C@@H](NC(C)=O)CC2", "note": "[colchicine, N-[(7S)-1,2,3,10-tetramethoxy-9-oxo-6,7-dihydro-5H-benzo[a]heptalen-7-yl]acetamide]", "values": [{"measurement": "lethal dose", "value": 0.8, "unit": "mg/kg"}, {"measurement": "toxicity limit", "value": 0.1, "unit": "mg/kg"}]}
